Results reported in PubChem BioAssay (NCI).
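Results reflect a 48-hour exposure of cells in 96-well plates to compound at five concentrations. At the GI50, growth is halved. TGI: total growth inhibition.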

Key:
Test in all cases: NCI tumour cell line growth inhibition, 48 h
[1] = test system: NCI-H23 lung
[2] = test system: MDA-MB-231 breast
[3] = test system: BT-549 breast
[4] = test system: U251 CNS
[5] = test system: T-47D breast
[6] = test system: ACHN renal
[7] = test system: SK-OV-3 ovarian
[8] = test system: SF-295 CNS
[9] = test system: NCI-H226 lung
[10] = test system: UACC-62 melanoma
[11] = test system: 786-0 renal
[12] = test system: HCT-116 colon
[13] = test system: HOP-92 NSCLC
[14] = test system: DU-145 prostate
[15] = test system: NCI-H460 lung
[16] = test system: CAKI-1 renal
[17] = test system: SF-539 CNS
[18] = test system: MDA-MB-435
[19] = test system: SR leukemia
[20] = test system: SNB-75 CNS
[21] = test system: SW-620 colon
[22] = test system: HS 578T breast
[23] = test system: SF-268 CNS
[24] = test system: UACC-257 melanoma
[25] = test system: RXF 393 renal
[26] = test system: NCI/ADR-RES ovarian
[27] = test system: HOP-62 NSCLC
[28] = test system: RPMI-8226 leukemia
[29] = test system: PC-3 prostate
[30] = test system: A498 renal
[31] = test system: EKVX NSCLC
[32] = test system: MALME-3M melanoma
[33] = test system: SK-MEL-5 melanoma
[34] = test system: SK-MEL-2 melanoma
[35] = test system: LOX IMVI melanoma
[36] = test system: K-562 leukemia
[37] = test system: TK-10 renal
[38] = test system: OVCAR-8 ovarian
[39] = test system: SN12C renal
[40] = test system: IGROV1 ovarian
[41] = test system: MCF7 breast
[42] = test system: HCC-2998 colon
[43] = test system: HCT-15 colon
[44] = test system: A549 NSCLC
[45] = test system: HL-60(TB) leukemia
[46] = test system: UO-31 renal
[47] = test system: HT29 colon
[48] = test system: CCRF-CEM leukemia
[49] = test system: MOLT-4 leukemia
[50] = test system: M14 melanoma
[51] = test system: OVCAR-4 ovarian
[52] = test system: NCI-H522 lung
[53] = test system: SNB-19 CNS
[54] = test system: KM12 colon
[55] = test system: COLO 205 colon
[56] = test system: OVCAR-5 ovarian
[57] = test system: SK-MEL-28 melanoma

Compound `N/C(=N\Nc1nc2cc([N+](=O)[O-])ccc2o1)c1ccccn1` has a TGI [1] of 4260 nM, a TGI [2] of 2130 nM and a TGI [3] of 3680 nM. The TGI [4] was 1230 nM, the TGI [5] was 796 nM and the TGI [6] was 9600 nM. For the same compound, the TGI [7] was 6380 nM, the TGI [8] was 14000 nM and the TGI [9] was 38000 nM. For the same compound, the TGI [10] was 1540 nM, the TGI [11] was 1930 nM and the TGI [12] was 222 nM. For the same compound, the TGI [13] was 5710 nM, the TGI [14] was 1110 nM and the TGI [15] was 1190 nM. The TGI [16] was 8440 nM, the TGI [17] was 1000 nM and the TGI [18] was over 100000 nM. The TGI [19] was 69.6 nM, the TGI [20] was 2130 nM and the TGI [21] was over 100000 nM. It also gave a TGI [22] of over 100000 nM, a TGI [23] of 1620 nM and a TGI [24] of 341 nM. The TGI [25] was 497 nM, the TGI [26] was 4450 nM and the TGI [27] was 2800 nM. For the same compound, the TGI [28] was 4830 nM, the TGI [29] was 6140 nM and the TGI [30] was 3600 nM. For the same compound, the TGI [31] was 202 nM, the TGI [32] was 58400 nM and the TGI [33] was 1450 nM. It also gave a TGI [34] of 2630 nM, a TGI [35] of 3680 nM and a TGI [36] of over 100000 nM. It also gave a TGI [37] of 5510 nM, a TGI [38] of 10600 nM and a TGI [39] of 3850 nM.

For `COc1cc(C2c3cc4c(cc3C3OC(=O)C2C3CO)OCO4)cc(OC)c1OC` (stereo not given), the GI50 [40] was 35 nM, the TGI [40] was over 100000 nM and the GI50 [41] was under 10 nM. The TGI [41] was over 100000 nM, the GI50 [42] was 29.7 nM and the TGI [42] was 89.9 nM. The GI50 [1] was 31.7 nM, the TGI [1] was over 100000 nM and the GI50 [2] was 30 nM. It also gave a TGI [2] of 90.1 nM, a GI50 [3] of 33.4 nM and a TGI [3] of 9270 nM. For the same compound, the GI50 [4] was 35.4 nM, the TGI [4] was over 100000 nM and the GI50 [5] was 18.1 nM. The TGI [5] was over 100000 nM, the GI50 [6] was 34.4 nM and the TGI [6] was over 100000 nM. The GI50 [43] was 27.2 nM, the TGI [43] was over 100000 nM and the GI50 [7] was 21.7 nM. For the same compound, the TGI [7] was 72.2 nM, the GI50 [44] was 29.4 nM and the TGI [44] was over 100000 nM. The GI50 [8] was 18.2 nM, the TGI [8] was 166 nM and the GI50 [9] was 61.6 nM. It also gave a TGI [9] of over 100000 nM, a GI50 [10] of under 13.6 nM and a TGI [10] of over 100000 nM. It also gave a GI50 [11] of 43.7 nM, a TGI [11] of over 100000 nM and a GI50 [12] of 19.1 nM. It also gave a TGI [12] of over 100000 nM, a GI50 [13] of under 10.8 nM and a TGI [13] of 86.9 nM. For the same compound, the GI50 [14] was 28.5 nM, the GI50 [45] was 20.7 nM and the TGI [45] was 74.8 nM. It also gave a GI50 [46] of 64.4 nM, a TGI [46] of over 100000 nM and a GI50 [15] of 29.9 nM. For the same compound, the TGI [15] was over 100000 nM, the GI50 [16] was 51.1 nM and the TGI [16] was over 100000 nM. For the same compound, the GI50 [17] was under 12.2 nM, the TGI [17] was 66.8 nM and the GI50 [18] was 10 nM. For the same compound, the TGI [18] was 37.4 nM, the GI50 [47] was 12 nM and the TGI [47] was over 100000 nM. It also gave a GI50 [48] of 27.1 nM, a TGI [48] of over 100000 nM and a GI50 [20] of 41.5 nM. It also gave a TGI [20] of over 100000 nM, a GI50 [49] of 38.5 nM and a TGI [49] of over 100000 nM. The GI50 [21] was 24.4 nM, the TGI [21] was over 100000 nM and the GI50 [22] was 43 nM. It also gave a TGI [22] of over 100000 nM, a GI50 [23] of 39.5 nM and a TGI [23] of over 100000 nM. The GI50 [50] was 33.3 nM, the TGI [50] was over 100000 nM and the TGI [24] was over 100000 nM. For the same compound, the GI50 [25] was under 16.2 nM, the GI50 [51] was 44.6 nM and the TGI [51] was over 100000 nM. For the same compound, the GI50 [26] was 18.1 nM, the TGI [26] was 60.7 nM and the GI50 [27] was 33.9 nM. For the same compound, the TGI [27] was over 100000 nM, the GI50 [28] was 28.2 nM and the TGI [28] was over 100000 nM. For the same compound, the GI50 [29] was 28.5 nM, the TGI [29] was over 100000 nM and the GI50 [30] was under 10 nM. For the same compound, the TGI [30] was 60.5 nM, the GI50 [52] was under 10 nM and the TGI [52] was 35.1 nM. For the same compound, the TGI [53] was over 100000 nM, the GI50 [32] was 26.2 nM and the TGI [32] was over 100000 nM. For the same compound, the GI50 [54] was 13.2 nM, the TGI [54] was over 100000 nM and the GI50 [33] was 17.6 nM. For the same compound, the TGI [33] was 47 nM, the GI50 [55] was 18.8 nM and the TGI [55] was 37.2 nM. The GI50 [56] was 53.9 nM, the TGI [56] was over 100000 nM and the GI50 [34] was 33.7 nM. For the same compound, the TGI [34] was over 100000 nM, the GI50 [35] was under 10 nM and the TGI [35] was over 100000 nM. For the same compound, the GI50 [36] was 20.5 nM, the TGI [36] was over 100000 nM and the GI50 [37] was 53.5 nM. It also gave a TGI [37] of over 100000 nM, a GI50 [57] of 8680 nM and a TGI [57] of over 100000 nM. The GI50 [38] was 27.4 nM, the TGI [38] was over 100000 nM and the GI50 [39] was 45.7 nM. It also gave a TGI [39] of over 100000 nM.
